Results as given in patent publication US10464896B2, “Efflux-pump inhibitors and therapeutic uses thereof” (Basilea Pharmaceutica International AG, priority 2015, dated 2019).

The molecules below were run on E. coli ATCC25922 (assay: Antibacterial activity in combination with minocycline (growth inhibition)). Conditions: Escherichia coli, ATCC25922, compound at 25 μM; minocycline 0.25 μg/mL; OD625 23 h minus 1 h; read-out: residual growth of E. coli ATCC25922 (% of uninhibited control) with minocycline.
Assay type: cell-based
Description: Antibacterial activity in combination with minocycline or with linezolid
Inhibition of growth was measured with E. coli ATCC25922 and P. aeruginosa PAO1 in a 96-well plate format. Cation-adjusted Müller-Hinton broth (caMHB) was inoculated with an overnight culture and incubated at 37° C. on a shaker until OD625 reached 0.6 to 0.7. Density was adjusted to OD600=0.5 by addition of caMHB. 35 μL of the suspension were diluted to 35 mL with caMHB and supplemented with minocycline at the subinhibitory doses of 0.25 μg/mL for E. coli and 8 μg/mL for P. aeruginosa or with linezolid at the subinhibitory dose of 128 μg/mL for E. coli and P. aeruginosa. Each well contained 1 μL of test compound in 100 μL caMHB with minocycline or with linezolid.
Plates were incubated at 37° C. on a plate shaker. OD625 was measured at 1 h, 6 h, and at 23 h.
The difference between OD at 23 h and at 1 h was taken as measure for cell density and compared to controls without inhibitor (i.e. uninhibited control). Results were expressed as residual growth (% of uninhibited control). Enhancement of minocycline or linezolid activity caused reduced residual growth.

| Structure (SMILES) | activity at 25 µM [%] |
| --- | --- |
| Clc1ccc(COc2cccc(CNCC3CNC3)c2)c(Br)c1 [Example 18] | ≤ 10 |
| Clc1ccc(-c2ccc(CNCC3CNC3)cc2)cc1 [Example 25] | ≤ 10 |
| CC(C)(c1ccccc1)c1ccc(OCCCNCC2CNC2)cc1 [Example 29] | ≤ 10 |
| Clc1ccc(COc2cccc(CNCC3CCNC3)c2)c(Br)c1 (centres unmarked) [Example 30] | ≤ 10 |
| CC(C)(c1ccccc1)c1ccc(OCCCNCC2CCNCC2)cc1 [Example 31] | ≤ 10 |
| CC(C)(c1ccccc1)c1ccc(OCCCNCC2CCNC2)cc1 (centres unmarked) [Example 32] | ≤ 10 |
| Clc1ccc(COc2ccccc2CNCC2CNC2)c(Br)c1 [Example 33] | ≤ 10 |
| Fc1ccc(COc2cccc(CNCC3CNC3)c2)c(F)c1 [Example 34] | ≤ 10 |
| Clc1ccc(COc2cccc(CNCC3CCNCC3)c2)c(Br)c1 [Example 35] | ≤ 10 |
| Clc1cc(CNCC2CNC2)cc(OCc2ccc(Cl)cc2Br)c1 [Example 37, N-(azetidin-3-ylmethyl)-1-[3-[(2-bromo-4-chloro-phenyl)methoxy]-5-chloro-phenyl]methanamine] | ≤ 10 |
| Clc1ccc(OCc2cccc(CNCC3CNC3)c2)c(Br)c1 [Example 38] | ≤ 10 |
| CC(C)(c1ccccc1)c1ccc(OCCNCC2CCNCC2)cc1 [Example 39] | ≤ 10 |
| Clc1cc(Cl)cc(COc2cccc(CNCC3CNC3)c2)c1 [Example 40] | ≤ 10 |
| Brc1ccccc1COc1cccc(CNCC2CNC2)c1 [Example 41] | ≤ 10 |
| CC(C)(c1ccccc1)c1ccc(OCCNCC2CCNC2)cc1 (centres unmarked) [Example 42] | ≤ 10 |
| Fc1cc(F)cc(COc2cccc(CNCC3CNC3)c2)c1 [Example 43] | ≤ 10 |
| CC(C)(c1ccccc1)c1ccc(CNCC2CCNC2)cc1 (centres unmarked) [Example 44] | ≤ 10 |
| CC(C)(c1ccccc1)c1ccc(CNCC2CNC2)cc1 [Example 45] | ≤ 10 |
| CC(C)(c1ccccc1)c1ccc(CNCC2CCNCC2)cc1 [Example 46] | ≤ 10 |
| FC(F)(F)c1cc(Br)ccc1COc1cccc(CNCC2CNC2)c1 [Example 47] | ≤ 10 |
| FC(F)(F)c1ccc(COc2cccc(CNCC3CNC3)c2)c(Cl)c1 [Example 49] | ≤ 10 |
| Clc1ccc(CSc2cccc(CNCC3CNC3)c2)c(Br)c1 [Example 51, N-(azetidin-3-ylmethyl)-1-[3-[(2-bromo-4-chloro-phenyl)methylsulfanyl]phenyl]methanamine] | ≤ 10 |
| Fc1cc(Br)ccc1COc1ccc(CNCC2CCNCC2)cc1 [Example 52] | ≤ 10 |
| Clc1ccc(OCc2cccc(CNC3CCNCC3)c2)c(Br)c1 [Example 53] | ≤ 10 |
| Fc1cc(Br)ccc1COc1ccc(CNCC2CCNC2)cc1 (centres unmarked) [Example 55] | ≤ 10 |
| Fc1cc(Br)ccc1COc1ccc(CNCC2CNC2)cc1 [Example 56] | ≤ 10 |
| Clc1ccc(OCc2cccc(CCNCC3CNC3)c2)c(Br)c1 [Example 58] | ≤ 10 |
| CC(C)(C)c1ccc(COc2ccc(CNC3CCNCC3)cc2)cc1 [Example 59] | ≤ 10 |

| Structure (SMILES) | activity at 25 µM [%] |
| --- | --- |
| Fc1cc(Br)ccc1COc1ccc(CNC2CCNCC2)cc1 [Example 60] | ≤ 10 |
| Clc1ccc(/C=C/c2cccc(CNCC3CNC3)c2)c(Br)c1 [Example 61] | ≤ 10 |
| Clc1ccc(-c2ccc(CNCC3CCNC3)cc2)c(Br)c1 (centres unmarked) [Example 62] | ≤ 10 |
| Clc1ccc(CCc2cccc(CNCC3CNC3)c2)c(Br)c1 [Example 64, N-(azetidin-3-ylmethyl)-1-[3-[2-(2-bromo-4-chloro-phenyl)ethyl]phenyl]methanamine] | ≤ 10 |
| Clc1ccc(OCc2cccc(CNCC3CNCCO3)c2)c(Br)c1 (centres unmarked) [Example 65] | ≤ 10 |
| Clc1ccc(COc2ccc(CNCC3CNC3)cc2)cc1Cl [Example 66] | ≤ 10 |
| Clc1ccc(COc2ccc(CNCC3CCNCC3)cc2)cc1Cl [Example 67] | ≤ 10 |
| Clc1ccc(-c2ccc(CNCC3CNC3)cc2)c(Br)c1 [Example 68, N-(azetidin-3-ylmethyl)-1-[4-(2-bromo-4-chloro-phenyl)phenyl]methanamine] | ≤ 10 |
| Clc1ccc(COc2ccc(CNCC3CCNC3)cc2)cc1Cl (centres unmarked) [Example 70] | ≤ 10 |
| Brc1ccccc1COc1ccc(CNC2CCNCC2)cc1 [Example 71] | ≤ 10 |
| Brc1ccccc1COc1ccc(CNCC2CCNCC2)cc1 [Example 72] | ≤ 10 |
| Clc1ccc(OCc2cccc(CCCNCC3CNC3)c2)c(Br)c1 [Example 73] | ≤ 10 |
| Clc1ccc(-c2cccc(CNCC3CNC3)c2)c(Br)c1 [Example 75] | ≤ 10 |
| Brc1ccccc1COc1ccc(CNCC2CCNC2)cc1 (centres unmarked) [Example 80] | ≤ 10 |
| Clc1ccc(Oc2ccc(CNCC3CNC3)cc2)c(Br)c1 [Example 81] | ≤ 10 |
| Clc1ccc(Oc2ccccc2CNCC2CCNC2)c(Br)c1 (centres unmarked) [Example 84] | ≤ 10 |
| N#Cc1ccc(COc2ccc(CNCC3CNC3)cc2)c(Br)c1 [Example 85] | ≤ 10 |
| Clc1ccc(Oc2cccc(CNCC3CCNC3)c2)c(Br)c1 (centres unmarked) [Example 88, 1-[3-(2-bromo-4-chloro-phenoxy)phenyl]-N-(pyrrolidin-3-ylmethyl)methanamine] | ≤ 10 |
| Clc1ccc(Oc2cccc(CNCC3CNC3)c2)c(Br)c1 [Example 90] | ≤ 10 |
| c1ccc(-c2cccc(COc3cccc(CNCC4CNC4)c3)c2)cc1 [Example 94] | ≤ 10 |
| c1ccc(-c2ccc(COc3cccc(CNCC4CNC4)c3)cc2)cc1 [Example 95] | ≤ 10 |
| Clc1ccc(OCCOc2ccc(CNCC3CNC3)cc2)c(Br)c1 [Example 96] | ≤ 10 |
| Clc1ccc(COc2ccc(Br)c(CNCC3CNC3)c2)c(Br)c1 [Example 97] | ≤ 10 |
| Fc1cc(CNCC2CNC2)cc(OCc2ccc(Cl)cc2Br)c1 [Example 103] | ≤ 10 |
| FC(F)(F)c1cc(CNCC2CNC2)cc(OCc2ccc(Cl)cc2Br)c1 [Example 104] | ≤ 10 |
| CC(NCC1CNC1)c1ccc(OCc2ccc(Cl)cc2Br)cc1 (centres unmarked) [Example 105] | ≤ 10 |
| C=CCOc1cc(CNCC2CNC2)cc(OCc2ccc(Cl)cc2Br)c1 [Example 106] | ≤ 10 |

Same assay, conditions: Escherichia coli, ATCC25922, compound at 50 μM; minocycline 0.25 μg/mL; OD625 23 h minus 1 h; read-out: residual growth of E. coli ATCC25922 (% of uninhibited control) with minocycline

| Structure (SMILES) | activity at 50 µM [%] |
| --- | --- |
| Clc1ccc(COc2ccccc2CNCC2CCNCC2)cc1 [Example 5] | ≤ 50 |
| Clc1ccccc1COc1ccccc1CNCC1CCNCC1 [Example 8] | ≤ 50 |
| Clc1ccc(COc2cccc(CNCC3CNC3)c2)cc1 [Example 13] | ≤ 50 |
| Clc1ccc(COc2ccccc2CNCC2CNC2)cc1 [Example 22] | ≤ 50 |
| Clc1ccc(COc2cccc(NCC3CNC3)c2)cc1 [Example 23, N-(azetidin-3-ylmethyl)-3-[(4-chlorophenyl)methoxy]aniline] | ≤ 50 |
| Clc1ccc(-c2ccccc2CNCC2CCNC2)c(Br)c1 (centres unmarked) [Example 69] | ≤ 50 |

Same assay, conditions: Escherichia coli, ATCC25922, read-out: residual growth of E. coli ATCC25922 (% of uninhibited control) with minocycline, compound at 25 μM; minocycline 0.25 μg/mL; OD625 23 h minus 1 h

| Structure (SMILES) | activity at 25 µM [%] |
| --- | --- |
| Clc1ccc(C=CCc2cccc(CNCC3CNC3)c2)c(Br)c1 (mixture of isomers) [Example 168, N-(azetidin-3-ylmethyl)-1-[3-[(Z/E)-3-(2-bromo-4-chloro-phenyl)allyl]phenyl]methanamine] | ≤ 10 |
